Source: ChEMBL document CHEMBL1131648, “Derivatization of soyasapogenol A and their hepatoprotective activities” (1998)

test system: HepG2; assay: Hepatoprotective activity against aflatoxin B1 (10e-5 M) induced Hep G2 cells at a dose of 10 ug/ml; format: functional, Homo sapiens

Going from `CC1(C)C[C@@H](O)[C@]2(C)CC[C@]3(C)C(=CCC4[C@@]5(C)CC[C@H](O)[C@](C)(CO)C5CC[C@]43C)[C@@H]2C1` (stereo partly drawn) to `CC1(C)C[C@H]2C3=CCC4[C@@]5(C)CC[C@H](O)[C@](C)(CO)C5CC[C@@]4(C)[C@]3(C)CC[C@@]2(C)C[C@@H]1O` (stereo partly drawn), the Protection rises from 14% to 25%.

Going from `CO[C@@H]1[C@H](OC)C(C)(C)C[C@H]2C3=CCC4[C@@]5(C)CC[C@H](O)[C@](C)(CO)C5CC[C@@]4(C)[C@]3(C)CC[C@@]12C` (stereo partly drawn) to `CO[C@H]1[C@@H](O)[C@]2(C)CC[C@]3(C)C(=CCC4[C@@]5(C)CC[C@H](O)[C@](C)(CO)C5CC[C@]43C)[C@@H]2CC1(C)C` (stereo partly drawn), the Protection rises from 0% to 8%.

Compared with `CC(=O)O[C@@H]1[C@H](OC(C)=O)C(C)(C)C[C@H]2C3=CCC4[C@@]5(C)CC[C@H](O)[C@](C)(CO)C5CC[C@@]4(C)[C@]3(C)CC[C@@]12C` (stereo partly drawn), `CC(=O)O[C@H]1[C@@H](O)[C@]2(C)CC[C@]3(C)C(=CCC4[C@@]5(C)CC[C@H](O)[C@](C)(CO)C5CC[C@]43C)[C@@H]2CC1(C)C` (stereo partly drawn) is higher in Protection: 0% for the first, 25% for the second.

Compared with `CC(=O)OC[C@]1(C)C2CC[C@]3(C)C(CC=C4[C@@H]5CC(C)(C)[C@@H](O)[C@@H](O)[C@]5(C)CC[C@]43C)[C@@]2(C)CC[C@@H]1OC(C)=O` (stereo partly drawn), `COC[C@]1(C)C2CC[C@]3(C)C(CC=C4[C@@H]5CC(C)(C)[C@@H](O)[C@@H](O)[C@]5(C)CC[C@]43C)[C@@]2(C)CC[C@@H]1OC` (stereo partly drawn) is higher in Protection: 0% for the first, 7% for the second.

First: CC1(C)C[C@H]2C3=CCC4[C@@]5(C)CC[C@H](O)[C@](C)(CO)C5CC[C@@]4(C)[C@]3(C)CC[C@@]2(C)C(=O)[C@@H]1O (stereo partly drawn)
Second: CC1(C)C[C@H]2C3=CC[C@@H]4[C@@]5(C)CC[C@H](O)[C@](C)(CO)[C@@H]5CC[C@@]4(C)[C@]3(C)CC[C@@]2(C)[C@@H](O)[C@H]1O
The Protection of the first is higher: 107% for the first, 8% for the second.

Going from `CO[C@@H]1[C@H](O)C(C)(C)C[C@H]2C3=CCC4[C@@]5(C)CC[C@H](O)[C@](C)(CO)C5CC[C@@]4(C)[C@]3(C)CC[C@@]12C` (stereo partly drawn) to `CC1(C)C[C@H]2C3=CC[C@@H]4[C@@]5(C)CC[C@H](O)[C@](C)(CO)[C@@H]5CC[C@@]4(C)[C@]3(C)CC[C@@]2(C)[C@@H](O)[C@@H]1O`, the Protection falls from 20% to 0%.

`CC1(C)C[C@H]2C3=CC[C@@H]4[C@@]5(C)CC[C@H](O)[C@](C)(CO)[C@@H]5CC[C@@]4(C)[C@]3(C)CC[C@@]2(C)[C@H](O)[C@H]1O` and `CC1(C)C[C@H]2C3=CC[C@@H]4[C@@]5(C)CC[C@H](O)[C@](C)(CO)[C@@H]5CC[C@@]4(C)[C@]3(C)CC[C@@]2(C)[C@H](O)[C@@H]1O` [SOYASAPOGENOL A] are the same in Protection: 0% for the first, 0% for the second.

Going from `CC1(C)C[C@H]2C3=CCC4[C@@]5(C)CC[C@H](O)[C@](C)(CO)C5CC[C@@]4(C)[C@]3(C)CC[C@@]2(C)CC1=O` (stereo partly drawn) to `CC1(C)C[C@H]2C3=CCC4[C@@]5(C)CC[C@H](O)[C@](C)(CO)C5CC[C@@]4(C)[C@]3(C)CC[C@@]2(C)C(=O)C1=O` (stereo partly drawn), the Protection rises from 37% to 131%.

Compound `CC1(C)C[C@H]2C3=CCC4[C@@]5(C)CC[C@H](O)[C@](C)(CO)C5CC[C@@]4(C)[C@]3(C)CC[C@@]2(C)C[C@H]1O` (stereo partly drawn) has a Protection of 0%.

test system: HepG2; assay: Hepatoprotective activity against aflatoxin B1 (10e-5 M) induced Hep G2 cells at a dose of 20 ug/ml; format: functional, Homo sapiens

Work on `CC1(C)[C@@H](O[C@H]2O[C@H](C(=O)O)[C@@H](O)[C@H](O)[C@H]2O[C@@H]2O[C@H](C(=O)O)[C@@H](O)[C@H](O)[C@H]2O)CC[C@]2(C)[C@H]3C(=O)C=C4[C@@H]5C[C@@](C)(C(=O)O)CC[C@]5(C)CC[C@@]4(C)[C@]3(C)CC[C@@H]12` [GLYCYRRHIZIN] yielded a Protection of 15%.
